Patent publication US9266878B2, “Phosphatidylinositol 3-kinase inhibitors” (Gilead Calistoga LLC, priority 2012, dated 2016)

Key:
Test in all cases: Enzymatic activity of PI3K isoforms, TR-FRET assay (PIP3 formation)
Assay type in all cases: biochemical
PI3Kδ = PI3Kδ (Homo sapiens (Human), UniProt O00329); conditions: bound given in nM
Method: (§1) Enzymatic activity of the class I PI3K isoforms was measured using a time-resolved fluorescence resonance energy transfer (TR-FRET) assay that monitors formation of the product 3,4,5-inositol triphosphate molecule (PIP3), as it competes with fluorescently labeled PIP3 for binding to the GRP-1 pleckstrin homology domain protein. An increase in […] product results in a decrease in TR-FRET signal as the labeled fluorophore is displaced from the GRP-1 protein binding site.
(§2) Class I PI3K isoforms were expressed and purified as heterodimeric recombinant proteins. All assay reagents and buffers for the TR-FRET assay were purchased from Millipore. […] After an assay reaction time of 30 minutes at 25° C., reactions were terminated with a final concentration of 10 mM EDTA, 10 nM labeled-PIP3, and 35 nM Europium labeled GRP-1 detector protein before reading TR-FRET on an Envision plate reader (Ex: 340 nm; Em: 615/665 nm; 100 μs delay and 500 μs read window).
(§3) IC50 are reported in units of nM. These assays generally produced results within 3-fold of the reported mean.

PI3Kα = PI3Kα (Homo sapiens (Human), UniProt P42336); conditions: bound given in uM
PI3Kα, sequence (P42336 whole entry): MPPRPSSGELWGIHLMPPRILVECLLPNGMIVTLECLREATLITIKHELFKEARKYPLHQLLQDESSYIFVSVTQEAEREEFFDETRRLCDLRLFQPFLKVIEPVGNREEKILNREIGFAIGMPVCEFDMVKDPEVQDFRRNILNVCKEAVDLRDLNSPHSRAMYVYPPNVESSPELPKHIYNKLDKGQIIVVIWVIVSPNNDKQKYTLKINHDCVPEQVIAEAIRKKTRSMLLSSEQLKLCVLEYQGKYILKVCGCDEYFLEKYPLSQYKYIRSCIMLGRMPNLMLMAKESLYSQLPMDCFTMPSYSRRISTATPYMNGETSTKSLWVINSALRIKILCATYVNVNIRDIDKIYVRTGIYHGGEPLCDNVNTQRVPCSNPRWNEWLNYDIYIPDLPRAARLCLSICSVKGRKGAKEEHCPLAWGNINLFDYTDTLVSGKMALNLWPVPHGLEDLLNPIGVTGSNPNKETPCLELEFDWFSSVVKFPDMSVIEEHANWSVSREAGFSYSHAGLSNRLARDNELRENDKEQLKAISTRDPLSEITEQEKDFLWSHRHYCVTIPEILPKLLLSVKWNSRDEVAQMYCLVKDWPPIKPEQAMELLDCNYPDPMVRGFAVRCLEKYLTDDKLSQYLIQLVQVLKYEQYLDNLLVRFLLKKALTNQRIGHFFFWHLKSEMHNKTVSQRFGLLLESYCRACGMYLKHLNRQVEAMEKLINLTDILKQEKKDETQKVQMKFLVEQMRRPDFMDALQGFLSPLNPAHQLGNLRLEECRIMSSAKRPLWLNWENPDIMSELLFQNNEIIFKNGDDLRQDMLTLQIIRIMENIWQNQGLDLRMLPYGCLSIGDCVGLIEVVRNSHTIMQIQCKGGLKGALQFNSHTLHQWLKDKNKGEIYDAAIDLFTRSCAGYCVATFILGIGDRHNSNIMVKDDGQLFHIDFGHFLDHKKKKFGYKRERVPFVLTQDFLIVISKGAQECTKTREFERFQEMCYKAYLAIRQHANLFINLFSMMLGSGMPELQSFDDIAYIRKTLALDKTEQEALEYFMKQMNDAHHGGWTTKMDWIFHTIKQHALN
PI3Kα, sequence (P27986 whole entry partner): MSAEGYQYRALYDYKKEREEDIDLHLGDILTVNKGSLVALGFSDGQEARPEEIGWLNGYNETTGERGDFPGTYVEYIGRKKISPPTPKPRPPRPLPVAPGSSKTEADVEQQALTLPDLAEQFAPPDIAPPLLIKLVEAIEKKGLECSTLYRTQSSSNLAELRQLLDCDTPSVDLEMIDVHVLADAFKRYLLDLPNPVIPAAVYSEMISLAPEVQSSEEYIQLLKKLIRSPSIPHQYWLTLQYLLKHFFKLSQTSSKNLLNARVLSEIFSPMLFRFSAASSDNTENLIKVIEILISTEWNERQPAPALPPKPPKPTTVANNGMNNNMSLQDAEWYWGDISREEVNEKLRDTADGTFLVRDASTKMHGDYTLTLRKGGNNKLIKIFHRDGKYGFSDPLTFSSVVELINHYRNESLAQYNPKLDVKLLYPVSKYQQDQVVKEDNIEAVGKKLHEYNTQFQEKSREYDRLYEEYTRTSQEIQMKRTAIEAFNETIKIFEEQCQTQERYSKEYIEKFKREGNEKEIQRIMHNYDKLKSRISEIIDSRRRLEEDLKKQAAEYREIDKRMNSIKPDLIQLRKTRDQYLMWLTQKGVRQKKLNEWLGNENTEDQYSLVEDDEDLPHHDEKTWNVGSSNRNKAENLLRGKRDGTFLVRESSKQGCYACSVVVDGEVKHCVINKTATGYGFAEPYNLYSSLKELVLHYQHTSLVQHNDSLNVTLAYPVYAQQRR
Method: as §1, §2, §3

PI3Kγ = PI3Kγ (Homo sapiens (Human), UniProt P48736)
PI3Kγ, sequence (P48736 whole entry): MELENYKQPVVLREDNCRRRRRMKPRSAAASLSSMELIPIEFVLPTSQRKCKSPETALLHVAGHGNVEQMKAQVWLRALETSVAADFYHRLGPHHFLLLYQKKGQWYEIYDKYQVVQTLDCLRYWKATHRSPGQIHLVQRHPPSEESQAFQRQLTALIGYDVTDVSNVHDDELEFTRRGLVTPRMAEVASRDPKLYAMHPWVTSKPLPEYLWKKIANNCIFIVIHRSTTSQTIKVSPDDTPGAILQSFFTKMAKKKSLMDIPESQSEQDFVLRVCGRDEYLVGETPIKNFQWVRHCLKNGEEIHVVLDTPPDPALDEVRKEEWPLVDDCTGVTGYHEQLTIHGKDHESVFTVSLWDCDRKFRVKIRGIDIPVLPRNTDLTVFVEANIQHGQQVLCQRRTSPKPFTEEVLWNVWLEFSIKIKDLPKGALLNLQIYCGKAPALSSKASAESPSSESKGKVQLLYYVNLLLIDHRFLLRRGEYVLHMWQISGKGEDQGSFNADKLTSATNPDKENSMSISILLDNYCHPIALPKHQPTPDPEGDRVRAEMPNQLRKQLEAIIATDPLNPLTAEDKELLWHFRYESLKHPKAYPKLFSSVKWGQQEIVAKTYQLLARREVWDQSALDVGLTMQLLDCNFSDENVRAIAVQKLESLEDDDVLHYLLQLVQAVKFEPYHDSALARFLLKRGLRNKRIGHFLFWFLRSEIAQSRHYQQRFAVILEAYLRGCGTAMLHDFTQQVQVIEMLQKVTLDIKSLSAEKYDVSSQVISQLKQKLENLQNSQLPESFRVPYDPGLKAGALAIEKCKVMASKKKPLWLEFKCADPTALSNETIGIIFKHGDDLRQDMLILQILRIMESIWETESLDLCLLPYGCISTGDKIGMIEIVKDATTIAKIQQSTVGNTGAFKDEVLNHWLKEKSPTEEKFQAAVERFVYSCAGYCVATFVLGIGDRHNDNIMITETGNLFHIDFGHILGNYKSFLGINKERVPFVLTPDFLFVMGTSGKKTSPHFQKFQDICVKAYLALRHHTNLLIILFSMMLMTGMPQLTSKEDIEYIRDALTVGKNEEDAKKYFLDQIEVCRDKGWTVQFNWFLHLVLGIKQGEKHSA
PI3Kγ, sequence (Q8WYR1 whole entry partner): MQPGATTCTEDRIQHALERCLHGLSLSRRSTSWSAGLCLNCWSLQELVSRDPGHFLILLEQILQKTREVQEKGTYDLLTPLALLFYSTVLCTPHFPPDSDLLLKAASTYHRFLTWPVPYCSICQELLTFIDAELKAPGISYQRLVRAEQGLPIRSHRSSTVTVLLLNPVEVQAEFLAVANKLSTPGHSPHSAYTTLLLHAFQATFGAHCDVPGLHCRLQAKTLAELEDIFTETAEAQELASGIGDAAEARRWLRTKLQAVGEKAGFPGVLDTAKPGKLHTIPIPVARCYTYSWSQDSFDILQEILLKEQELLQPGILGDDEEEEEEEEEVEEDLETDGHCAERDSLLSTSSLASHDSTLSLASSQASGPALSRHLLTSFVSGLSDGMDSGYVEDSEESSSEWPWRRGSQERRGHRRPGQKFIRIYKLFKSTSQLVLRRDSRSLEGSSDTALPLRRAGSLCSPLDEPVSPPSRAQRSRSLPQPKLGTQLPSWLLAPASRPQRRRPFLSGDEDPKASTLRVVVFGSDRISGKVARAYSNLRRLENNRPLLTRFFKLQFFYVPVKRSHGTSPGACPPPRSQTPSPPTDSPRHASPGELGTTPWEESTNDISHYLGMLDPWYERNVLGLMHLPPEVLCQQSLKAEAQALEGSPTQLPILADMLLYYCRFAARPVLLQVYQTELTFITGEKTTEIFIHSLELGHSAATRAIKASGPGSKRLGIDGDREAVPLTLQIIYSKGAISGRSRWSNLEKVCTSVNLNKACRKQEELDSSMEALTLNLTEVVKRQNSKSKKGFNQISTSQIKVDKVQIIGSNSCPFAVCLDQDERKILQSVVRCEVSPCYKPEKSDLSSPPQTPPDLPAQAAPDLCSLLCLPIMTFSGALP
Method: as §1
Class I PI3K isoforms were expressed and purified as heterodimeric recombinant proteins. All assay reagents and buffers for the TR-FRET assay were purchased from Millipore.
IC50 are reported in units of nM.

PI3Kδ, sequence (O00329 whole entry, the tested form may be a part, canonical isoform): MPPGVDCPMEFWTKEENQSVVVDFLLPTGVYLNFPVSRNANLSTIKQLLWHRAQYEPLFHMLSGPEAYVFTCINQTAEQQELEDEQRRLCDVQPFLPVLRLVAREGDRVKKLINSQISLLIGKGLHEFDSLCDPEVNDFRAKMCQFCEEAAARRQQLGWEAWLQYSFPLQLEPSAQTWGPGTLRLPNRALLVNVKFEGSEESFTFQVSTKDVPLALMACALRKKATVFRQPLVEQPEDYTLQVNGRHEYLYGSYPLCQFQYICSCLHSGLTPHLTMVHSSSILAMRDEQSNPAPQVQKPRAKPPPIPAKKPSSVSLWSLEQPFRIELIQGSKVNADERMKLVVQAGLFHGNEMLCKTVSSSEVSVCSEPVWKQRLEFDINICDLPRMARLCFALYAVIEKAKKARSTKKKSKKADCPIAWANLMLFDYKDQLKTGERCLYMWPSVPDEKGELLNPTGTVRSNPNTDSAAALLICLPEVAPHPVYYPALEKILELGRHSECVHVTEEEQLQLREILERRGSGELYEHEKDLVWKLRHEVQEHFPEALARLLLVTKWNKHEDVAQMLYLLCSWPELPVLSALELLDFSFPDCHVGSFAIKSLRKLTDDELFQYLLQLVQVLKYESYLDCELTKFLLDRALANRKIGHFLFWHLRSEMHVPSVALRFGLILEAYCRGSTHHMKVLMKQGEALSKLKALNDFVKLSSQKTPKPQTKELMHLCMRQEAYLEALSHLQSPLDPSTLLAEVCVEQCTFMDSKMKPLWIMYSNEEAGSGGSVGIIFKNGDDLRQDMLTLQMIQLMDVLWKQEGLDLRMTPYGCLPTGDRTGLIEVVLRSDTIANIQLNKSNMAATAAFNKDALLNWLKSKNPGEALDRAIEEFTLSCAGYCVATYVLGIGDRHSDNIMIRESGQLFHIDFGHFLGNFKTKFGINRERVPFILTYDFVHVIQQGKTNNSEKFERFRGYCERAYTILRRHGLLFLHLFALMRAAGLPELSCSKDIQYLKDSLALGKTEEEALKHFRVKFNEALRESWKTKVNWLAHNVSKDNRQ
PI3Kδ, sequence (P27986 whole entry partner, the tested form may be a part, canonical isoform): as the sequence (P27986 whole entry partner) above

SMILES | IC50 (PI3Kδ) [nM] | IC50 (PI3Kα) [µM] | IC50 (PI3Kγ; bound given in nM) [nM] | IC50 (PI3Kγ; bound given in uM) [nM]
Cc1ccc(C#Cc2c(N)ncnc2N[C@@H](C)c2nc3cccc(Cl)c3c(=O)n2-c2ccccc2)nc1 [Compound 133a, (S)-2-(1-((6-amino-5-((5-methylpyridin-2-yl)ethynyl)pyrimidin-4-yl)amino)ethyl)-5-chloro-3-phenylquinazolin-4(3H)-one] | < 100 | > 1 | < 100 | –
C[C@H](Nc1ncnc(N)c1C#Cc1ccc(C(N)=O)cn1)c1nc2cccc(Cl)c2c(=O)n1-c1ccccc1 [Compound 135a, (S)-6-((4-amino-6-((1-(5-chloro-4-oxo-3-phenyl-3,4-dihydroquinazolin-2-yl)ethyl)amino)pyrimidin-5-yl)ethynyl)nicotinamide] | < 100 | > 1 | < 100 | –
Nc1ncnc(N[C@H](CO)c2nc3cccc(Cl)c3c(=O)n2-c2ccccc2)c1C#Cc1ccc(F)cn1 [139b] | < 100 | > 1 | – | > 1000
C[C@H](Nc1ncnc(N)c1C#Cc1cnccn1)c1nc2cccc(F)c2c(=O)n1-c1cccnc1 [Compound 115a, (S)-2-(1-((6-amino-5-(pyrazin-2-ylethynyl)pyrimidin-4-yl)amino)ethyl)-5-fluoro-3-(pyridin-3-yl)quinazolin-4(3H)-one] | < 100 | > 1 | – | > 1000
C[C@H](Nc1ncnc(N)c1C#Cc1ccc(F)cn1)c1nc2c(F)ccc(F)c2c(=O)n1-c1ccccc1 [Compound 4a, (S)-2-(1-(6-amino-5-((5-fluoropyridin-2-yl)ethynyl)pyrimidin-4-ylamino)ethyl)-5,8-difluoro-3-phenylquinazolin-4(3H)-one] | < 100 | > 1 | – | > 1000
COc1cc(F)cc(C#Cc2c(N)ncnc2N[C@@H](C)c2nc3cccc(Cl)c3c(=O)n2N2CCOCC2)c1 [Compound 122a, (S)-2-(1-((6-amino-5-((3-fluoro-5-methoxyphenyl)ethynyl)pyrimidin-4-yl)amino)ethyl)-5-chloro-3-morpholinoquinazolin-4(3H)-one] | < 100 | > 1 | – | > 1000
C[C@H](Nc1ncnc(N)c1C#Cc1ccc(F)cn1)c1nc2c(F)cccc2c(=O)n1-c1ccccc1 [Compound 13a, (S)-2-(1-(6-amino-5-((5-fluoropyridin-2-yl)ethynyl)pyrimidin-4-ylamino)ethyl)-8-fluoro-3-phenylquinazolin-4(3H)-one] | < 100 | > 1 | – | > 1000
C[C@H](Nc1ncnc(N)c1C#Cc1ccc(F)cn1)c1nc2cccc(Cl)c2c(=O)n1N1CCOCC1 [Compound 121a, (S)-2-(1-((6-amino-5-((5-fluoropyridin-2-yl)ethynyl)pyrimidin-4-yl)amino)ethyl)-5-chloro-3-morpholinoquinazolin-4(3H)-one] | < 100 | > 1 | – | > 1000
Cc1cccc2nc([C@H](C)Nc3ncnc(N)c3C#Cc3cnccn3)n(-c3cccc(F)c3)c(=O)c12 [Compound 106a, (S)-2-(1-((6-amino-5-(pyrazin-2-ylethynyl)pyrimidin-4-yl)amino)ethyl)-3-(3-fluorophenyl)-5-methylquinazolin-4(3H)-one] | < 100 | > 1 | – | > 1000
Cc1ccc(F)c2c(=O)n(-c3ccccc3)c([C@H](C)Nc3ncnc(N)c3C#Cc3ccc(F)cn3)nc12 [Compound 69a, (S)-2-(1-((6-amino-5-((5-fluoropyridin-2-yl)ethynyl)pyrimidin-4-yl)amino)ethyl)-5-fluoro-8-methyl-3-phenylquinazolin-4(3H)-one] | < 100 | > 1 | – | > 1000
C[C@H](Nc1ncnc(N)c1C#Cc1ncccn1)c1nc2cccc(F)c2c(=O)n1-c1ccccc1 [Compound 109a, 2-(1-((6-amino-5-(pyrimidin-2-ylethynyl)pyrimidin-4-yl)amino)ethyl)-5-fluoro-3-phenylquinazolin-4(3H)-one] | < 100 | > 1 | – | > 1000
